Values quoted from earlier work in PMC10655862 (Methods in enzymology, 2023).
Where two headings read alike, the source gives them in different places.

Experiments:
AKR1D1 = settings: 5β-reduction, fluorometric, pH 6.0, 37 °C; ref Chen et al., (2011)
AKR1C2 = settings: AKR1C2, competitive inhibition (C); ref Bauman et al. (2005)
AKR1D1 (5β-reductase) = settings: ref Chen et al., (2011); for Type of inhibition (5β-reductase): inhibition of testosterone reduction; for inhibition of AKR1D1, in words: reduction of [4-14C]-testosterone
AKR1C1 = settings: AKR1C1, competitive inhibition (C); ref Bauman et al. (2005)
AKR1C3 = settings: AKR1C3, competitive inhibition (C); ref Bauman et al. (2005)
[1] = biological target: 5α-reductase type 2 (SRD5A2); settings: ref Bull et al. (1996)
aldose reductase AKR1B1 = settings: NADPH binding to AKR1B1, literature comparison; ref not given

| SMILES | Km (AKR1D1) | inhibition of AKR1D1, in words (AKR1D1 (5β-reductase)) | also measured |
| --- | --- | --- | --- |
| C[C@]12CC[C@H]3[C@@H](CCC4=CC(=O)C=C[C@@]43C)[C@@H]1CC[C@@H]2O [1,4-Androstadien-17β-ol-3-one] | 3.2 ± 0.2 µM | – | – |
| O=C(O)c1ccc(C(=O)c2ccccc2)cc1 [4-Benzoylbenzoic acid] | – | ineffective | Ki (AKR1C2): 13300 nM; Type of inhibition (5β-reductase) (AKR1D1 (5β-reductase)): n.i.; Ki (AKR1C1): 12500 nM; Ki (AKR1C3): 1900 nM |
| CC(C)CCC[C@@H](C)[C@H]1CC[C@H]2[C@@H]3[C@H](O)CC4=CC(=O)CC[C@]4(C)[C@H]3CC[C@]12C [4-Cholesten-7α-ol-3-one] | 0.8 ± 0.2 µM | – | – |
| C[C@]12CC[C@H]3[C@@H](CCC4=CC(=O)CC[C@@H]43)[C@@H]1CC[C@@H]2O [4-Estren-l7β-ol-3-one] | 3 ± 0.5 µM | – | – |
| C[C@H](CCC(=O)O)[C@H]1CC[C@H]2[C@@H]3[C@H](O)C[C@@H]4C[C@H](O)CC[C@]4(C)[C@H]3CC[C@]12C [Chenodeoxycholic acid] | – | weak non-competitive inhibitors | Ki (AKR1C2): 17 nM; Ki (AKR1C1): 8300 nM; Ki (AKR1C3): 10000 nM |
| CC(C)CCC[C@@H](C)[C@H]1CC[C@H]2[C@@H]3CCC4=CC(=O)CC[C@]4(C)[C@H]3CC[C@]12C [Cholestenone] | 0.3 ± 0.1 µM | – | – |
| C[C@]12C[C@H](O)[C@H]3[C@@H](CCC4=CC(=O)CC[C@@]43C)[C@@H]1CC[C@@H]2C(=O)CO [Corticosterone] | 2.2 ± 0.5 µM | – | – |
| C[C@]12CCC(=O)C=C1CC[C@@H]1[C@@H]2[C@@H](O)C[C@@]2(C)[C@H]1CC[C@]2(O)C(=O)CO [Cortisol] | 13.1 ± 1.8 µM | – | – |
| C[C@]12CCC(=O)C=C1CC[C@@H]1[C@@H]2C(=O)C[C@@]2(C)[C@H]1CC[C@]2(O)C(=O)CO [Cortisone] | 15.1 ± 0.3 µM | – | – |
| C[C@]12CC[C@H]3[C@@H](CCC4=CC(=O)CC[C@@]43C)[C@@H]1CC[C@H]2O [Epitestosterone] | 2.9 ± 0.6 µM | – | – |
| CC(C)(C)NC(=O)[C@H]1CC[C@H]2[C@@H]3CC[C@H]4NC(=O)C=C[C@]4(C)[C@H]3CC[C@]12C [Finasteride] | – | competitive inhibitor | Ki ([1]; competitive inhibition (C)): 26 nM; Ki ([1]; mechanism-based inhibition (MBI)): < 1 nM |
| COc1ccc2c(c1)c(CC(=O)O)c(C)n2C(=O)c1ccc(Cl)cc1 [Indomethacin] | – | ineffective | Type of inhibition (5β-reductase) (AKR1D1 (5β-reductase)): n.i. |
| Cc1cccc(Nc2ccccc2C(=O)O)c1C [Mefenamic acid] | – | ineffective | Type of inhibition (5β-reductase) (AKR1D1 (5β-reductase)): n.i.; Ki (AKR1C1): 800 nM |
| NC(=O)C1=CN([C@@H]2O[C@H](COP(=O)(O)OP(=O)(O)OC[C@H]3O[C@@H](n4cnc5c(N)ncnc54)[C@H](OP(=O)(O)O)[C@@H]3O)[C@@H](O)[C@H]2O)C=CC1 [NADPH] | – | – | Kd (aldose reductase AKR1B1): 9 nM |
| C[C@]12CC[C@H]3[C@@H](CCC4=CC(=O)CC[C@@]43C)[C@@H]1CC[C@@H]2O [Testosterone] | 2.7 ± 1.2 µM | – | – |
| C[C@H](CCC(=O)O)[C@H]1CC[C@H]2[C@@H]3[C@@H](O)C[C@@H]4C[C@H](O)CC[C@]4(C)[C@H]3CC[C@]12C [Ursodeoxycholic acid] | – | weak non-competitive inhibitors | Ki (AKR1C2): 11 nM; Ki (AKR1C1): 4900 nM; Ki (AKR1C3): 1300 nM |
| C[C@]12CCC(=O)C=C1CC[C@@H]1[C@@H]2CC[C@]2(C)C(=O)CC[C@@H]12 [Δ^4-Androstene-3,17-dione] | 0.9 ± 0.2 µM | – | – |
